In patent US20260183276A1, “miRNA DYSREGULATION CORRECTION AS A STRATEGY TO TREAT HUNTINGTON'S DISEASE” (The Chinese University of Hong Kong, priority 2022, published 2026):
Entries after “also recorded” stand apart in the source; their conditions may differ.

Key:
[1] = test system: TAK1-MKK4-JNK pro-apoptotic signaling in EGFPCAG78-expressing cells; assay: Western blotting of TAK1-MKK4-JNK caspase cascade, EGFPCAG78-expressing cells; type: cell-based; conditions: for TAB1 expression / TAK1-triggered cell death / TAB2 expression: EGFPCAG78-transfected cells; for TAK1-triggered cell death: FIG. 9A; for EGFPCAG78-induced TAK1 functional deregulation: FIG. 9B
Protocol: (§1) SK-N-MC cells (ATCC) were cultured in DMEM (GE Healthcare BioSciences) supplemented with 10% fetal bovine serum and 1% penicillin-streptomycin. Cells were maintained in a 37° C. humidified cell culture incubator supplemented with 5% CO2. Plasmid DNA and siRNA/synthetic miRNA transfection was performed using Lipofectamine 2000 (Thermo Fisher Scientific) and Lipofectamine RNAiMAX (Thermo Fisher Scientific), respectively.
(§2) Proteins were extracted from SK-N-MC cells or mouse primary cortical neurons using SDS sample buffer. For protein extraction from mice, half of the brain was homogenized in protein lysis buffer (50 mM Tris-HCl, pH 7.6, 150 mM NaCl, 10% NP40, 5% sodium deoxycholate). All protein samples were boiled at 99° C. for 10 minutes, prior to Western blotting. Primary antibodies used were anti-PAPD5 (PA5-46747, 1:1,000) from Invitrogen; anti-p-TAK1 (4536, 1:1,000), anti-t-TAK1 (4505, 1:2,000), anti-p-MKK4 (9156, 1:1,000), anti-t-MKK4 (9152, 1:2,000), anti-p-MKK7 (4171, 1:1,000), anti-t-MKK7 (4172, 1:2,000), anti-p-JNK (9251, 1:2,000), anti-t-JNK (9252, 1:2,000), anti-TAB1 (3226, 1:2,000), anti-TAB2 (3745, 1:2,000), anti-cleaved caspase 3 (9664, 1:500) and anti-myc (2276, 1:2,000) from Cell Signaling Technology; antipolyQ (P1874, 1:1,000) and anti-HA (H3663, 1:2,000) from Sigma-Aldrich; anti-YY1 (ab109237, 1:2000) and anti-β-tubulin (ab6046, 1:2,000) from Abcam, and anti-GFP (JL-8, 1:4,000) from Clontech. Secondary antibodies used were goat anti-rabbit (11035-045, 1:5,000) and goat anti-mouse (115-035-062, 1:5,000) from Jackson ImmunoResearch.

A-beta peptide toxicity = assay: A-beta1-42 peptide transgenic Drosophila model of Alzheimer's Disease; type: in vivo; conditions: A-beta1-42 transgenic Drosophila
[2] = test system: EGFPCAG78-expressing SK-N-MC cells; assay: LDH cell death assay, EGFPCAG78-expressing SK-N-MC cells; type: cell-based
Protocol: as §1
(§3) The LDH assay on SK-N-MC cells were performed according to manufacturer's instructions (CytoTox 96 Non-Radioactive Cytotoxicity Assay Kit, Promega).

[3] = test system: PAPD5-overexpressing cells; assay: LDH cell death assay, PAPD5-overexpressing cells; type: cell-based
Protocol: as §1, §3

[4] = test system: EGFP-Htt1-550CAG89-expressing SK-N-MC cells; assay: LDH cell death assay, EGFP-Htt1-550CAG89-expressing SK-N-MC cells; type: cell-based
Protocol: as §1, §3

[5] = test system: TAK1-MKK4-JNK pro-apoptotic signaling in PAPD5-overexpressing cells; assay: Western blotting of TAK1-MKK4-JNK caspase cascade, PAPD5-overexpressing cells; type: cell-based
Protocol: as §1, §2

[6] = test system: TAK1-MKK4-JNK pro-apoptotic signaling in EGFP-Htt1-550CAG89-expressing cells; assay: Western blotting of TAK1-MKK4-JNK caspase cascade, EGFP-Htt1-550CAG89-expressing SK-N-MC cells; type: cell-based
Protocol: as §1, §2

[7] = test system: EGFP-Htt1-550CAG89-expressing mouse primary cortical neurons; assay: Immunocytochemistry of synaptic markers and neurites, EGFP-Htt1-550CAG89-expressing primary cortical neurons; type: cell-based; conditions: 400 nM BCH001, 72 hours
Protocol: E16-embryos of C57BL6J wildtype mice were sacrificed to obtain the mouse primary cortical neurons as previously described (Peng et al., 2021). In brief, cortical lobes were dissected out in ice-cold PBS-glucose. Meninges were removed and cortices were digested in trypsin solution. Primary cortical neurons were cultured on poly-[…]-coated (0.05 mg/ml) glass coverslips in 24-well plates (50,000 cells per well) and maintained in a 37° C. humidified cell culture incubator supplemented with 5% CO2. Prior to transfection and drug treatment, neurons were cultured for 5 days. Mature primary neurons were transfected with DNA constructs together with Lipofectamine LTX and Plus Reagent (Thermo Fisher Scientific). Following the manufacturer's protocol, at 4 hours post-transfection culture medium was refreshed and 400 nM of BCH001 was added to the medium. Neurons were further incubated for 72 hours to allow recovery and ectopic expression. Neurons were fixed with 4% paraformaldehyde for 10 minutes, followed by permeabilization (0.2% Triton X-100) for another 10 minutes and blocking (1% BSA) for 1 hour at room temperature. Primary antibody incubation was performed in 1% BSA overnight at 4° C. After washing steps, neurons were incubated with secondary antibodies in 1% BSA in dark for 1 hour at room temperature. Samples were counterstained with 1 μg/ml 4,6-diamidino-2-phenylindole (DAPI) solution for nuclei visualization and then washed with PBS, followed by mounting and examined under a confocal microscope (Leica TCS SP8 high speed imaging system). To examine the neurite arborization and quantify the synaptic markers, primary neurons were stained with MAP2 (1:10,000; ab5392, Abcam) and Synapsin I (1:200; ab8, Abcam), Bassoon (1:200; ab110426, Abcam) or Homer1 (1:200; ab97593, Abcam) antibodies. The z stacked maximal projected images were used for statistical analyses using Photoshop 2020 (Adobe Systems). Ten EGFP-positive neurons per replica were used for the statistical analysis.

[8] = test system: JNK phosphorylation and caspase 3 cleavage in EGFP-Htt1-550CAG89-expressing neurons; assay: Western blotting, EGFP-Htt1-550CAG89-expressing primary cortical neurons; type: cell-based, mouse
Protocol: E16-embryos of C57BL6J wildtype mice were sacrificed to obtain the mouse primary cortical neurons as previously described (Peng et al., 2021). In brief, cortical lobes were dissected out in ice-cold PBS-glucose. Meninges were removed and cortices were digested in trypsin solution. Primary cortical neurons were cultured on poly-[…]-coated (0.05 mg/ml) glass coverslips in 24-well plates (50,000 cells per well) and maintained in a 37° C. humidified cell culture incubator supplemented with 5% CO2. Prior to transfection and drug treatment, neurons were cultured for 5 days. Mature primary neurons were transfected with DNA constructs together with Lipofectamine LTX and Plus Reagent (Thermo Fisher Scientific). Following the manufacturer's protocol, at 4 hours post-transfection culture medium was refreshed and 400 nM of BCH001 was added to the medium. Neurons were further incubated for 72 hours to allow recovery and ectopic expression. Proteins were extracted from SK-N-MC cells or mouse primary cortical neurons using SDS sample buffer. For protein extraction from mice, half of the brain was homogenized in protein lysis buffer (50 mM Tris-HCl, pH 7.6, 150 mM NaCl, 10% NP40, 5% sodium deoxycholate). All protein samples were boiled at 99° C. for 10 minutes, prior to Western blotting. […]

[9] = test system: HttQ93-induced retinal neurodegeneration; assay: Pseudopupil assay, HttQ93 Drosophila model of Huntington's Disease; type: in vivo; conditions: 10 uM BCH001, gmr-GAL4 driver
Protocol: Fly lines gmr-Gal4 (Ellis et al., 1993), UAS-DsRedCAG0/100 (Li et al., 2008), UAS-Htt exon1Q93 (Steffan et al., 2001), UAS-flMJDQ27/84 (Warrick et al., 2005), UASCTG60/480 (Garcia-Lopez et al., 2008) and UAS-EGFP-CGG90 (Jin et al., 2003) were described previously. The UAS-PAPD5 dsRNA line (GD19799, GD41096, and GD45261) was obtained from Vienna Drosophila RNAi Center. All flies were maintained in cornmeal culture medium and genetic crosses were set up in a 21.5° C. incubator (LMS, Sevenoaks, Kent, UK).
12 days-post-eclosion (dpe) adult flies were used for the pseudopupil assay as described previously (Wong et al., 2008). Each fly eye was examined using an Olympus CX31 stereomicroscope. The images of ommatidia were captured using a SPOT Insight CCD camera (Diagnostic instruments Inc., Sterling Heights, MI, USA), and all images were processed using the SPOT Advanced software (Version 5.2; Diagnostic instruments Inc., Sterling Heights, MI, USA) and Photoshop 2020 (Adobe Systems). Two hundred ommatidia collected from 20 individual fly eyes were examined for each condition and used for statistical analysis. The average number of rhabdomeres per ommatidia was presented as the indication of ommatidial integrity.

[10] = test system: telomerase RNA component (TERC); conditions: cited from earlier work
PAPD5 = PAPD5 (Homo sapiens, UniProt Q8NDF8); conditions: cited from earlier work
Sequence of PAPD5 (Q8NDF8 whole entry): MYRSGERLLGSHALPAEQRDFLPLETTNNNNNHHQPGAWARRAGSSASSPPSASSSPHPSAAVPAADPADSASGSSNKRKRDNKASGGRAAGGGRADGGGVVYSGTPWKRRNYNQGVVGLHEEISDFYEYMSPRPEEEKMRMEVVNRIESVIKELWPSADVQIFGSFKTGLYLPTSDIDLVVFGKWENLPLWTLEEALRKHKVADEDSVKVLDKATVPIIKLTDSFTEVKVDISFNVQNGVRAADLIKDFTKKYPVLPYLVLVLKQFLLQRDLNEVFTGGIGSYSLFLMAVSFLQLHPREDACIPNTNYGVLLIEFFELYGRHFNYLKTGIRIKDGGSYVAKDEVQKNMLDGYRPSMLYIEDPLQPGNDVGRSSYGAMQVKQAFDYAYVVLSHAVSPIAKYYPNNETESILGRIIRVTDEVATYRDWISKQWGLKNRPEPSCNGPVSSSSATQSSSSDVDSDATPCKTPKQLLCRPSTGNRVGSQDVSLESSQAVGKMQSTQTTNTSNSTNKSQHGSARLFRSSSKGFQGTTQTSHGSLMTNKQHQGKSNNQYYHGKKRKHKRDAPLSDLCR

miR-10a-5p: miRNA (IDT), SEQ ID NO: 10, predicted to target TAB1 (UACCCUGUAGAUCCGAAUUUGUG; listed as RNA, chemistry not given here)
TAB1 expression [1]: able to silence
TAK1-triggered cell death [1]: inhibit

COCCCOc1cc2c(cc1OC)-c1cc(=O)c(C(=O)O)cn1[C@H](C(C)C)C2 [RG7834]
A-beta peptide toxicity (retinal degeneration) (A-beta peptide toxicity): capable of suppressing

miR-331-3p: miRNA (IDT), SEQ ID NO: 12, predicted to target TAB1 (GCCCCUGGGCCUAUCCUAGAA; listed as RNA, chemistry not given here)
TAB1 expression [1]: able to silence
TAK1-triggered cell death [1]: inhibit

CCOC(=O)c1cnc2ccc(OC(F)(F)F)cc2c1Nc1ccccc1C(=O)O [BCH001]
mutant CAG RNA (EGFPCAG78)-induced cell death [2]: completely suppressed
IC50 ([2]; Homo sapiens, FIG. 11, read-out: IC50 of suppression of EGFPCAG78-induced cell death): 14.7 nM
PAPD5-induced cell death ([3]; 200 nM BCH001, FIG. 4A): sufficient to suppress
cell death induced by the compound ([3]; 400 nM, FIG. 4A): does not induce cell death
PAPD5-induced cell death ([3]; PAPD5 overexpression): suppressed in a dose-dependent manner
EGFP-Htt1-550CAG89-induced cell death [4]: rescued
TAK1/MKK4/JNK phosphorylation [5]: suppressed in a dose-dependent manner
caspase 3 cleavage [5]: suppressed in a dose-dependent manner
caspase 3 cleavage [6]: suppressed
phosphorylation levels of TAK1, MKK4 and JNK [6]: reduced
neurites (primary, secondary, tertiary) [7]: recovered to their control levels
puncta number of Bassoon [7]: restoration
puncta number of Homer1 [7]: restoration
puncta number of Synapsin I [7]: restoration
synaptic defects [7]: fully rescued
JNK phosphorylation [8]: attenuated
caspase 3 cleavage [8]: attenuated
HttQ93-induced retinal neurodegeneration (rhabdomere numbers) [9]: marked suppression
A-beta peptide toxicity (retinal degeneration) (A-beta peptide toxicity): capable of suppressing
3' adenylation of telomerase RNA component (TERC) [10]: reduced
PAPD5 enzyme activity (PAPD5): specifically target

miR-22-5p: miRNA (IDT), SEQ ID NO: 14, predicted to target TAB2 (AGUUCUUCAGUGGCAAGCUUUA; listed as RNA, chemistry not given here)
TAB2 expression [1]: capable of silencing
EGFPCAG78-induced TAK1 functional deregulation [1]: inhibiting

miR-504: miRNA targeting TAB1, expressed from construct pRI-CMV/GFP-miR-504 (mimic sequence SEQ ID NO: 3) (GACCCTGGTCTGCACTCTATC; listed as DNA, chemistry not fully specified)
mutant CAG RNA (EGFPCAG78)-induced cell death [2]: inhibited in a dose-dependent manner
EGFP-Htt1-550CAG89-induced cell death [4]: rescued
phosphorylation of TAK1 and JNK, and cleavage of caspase 3 ([1]; EGFPCAG78-expressing cells, miRNA overexpression): suppressed
TAB1 expression [1]: most robust gene-silencing effects; also recorded: reduced
caspase 3 cleavage [6]: rescued
phosphorylation levels of TAK1, MKK4 and JNK [6]: rescued

COc1cc(O)c2c(c1)/C=C/C[C@H](O)[C@H](O)C(=O)/C=C\C[C@H](C)OC2=O [5Z-7-oxozeaenol]
mutant CAG RNA (EGFPCAG78)-induced cell death [2]: rescued
PAPD5-induced cell death ([3]; PAPD5 overexpression): suppressed
EGFP-Htt1-550CAG89-induced cell death [4]: rescued
TAK1/MKK4/JNK phosphorylation [5]: dose-dependent decrease
caspase 3 cleavage [5]: dose-dependent decrease
TAK1-MKK4-JNK pro-apoptotic signaling (phosphorylation of TAK1, MKK4, JNK, caspase 3 cleavage) ([1]; EGFPCAG78-expressing cells): suppressed
caspase 3 cleavage [6]: rescued
phosphorylation levels of TAK1, MKK4 and JNK [6]: rescued

miR-7-5p: miRNA (IDT), SEQ ID NO: 15, predicted to target TAB2
TAB2 expression [1]: capable of silencing
EGFPCAG78-induced TAK1 functional deregulation [1]: inhibiting
